Laboratory results: patent publication US20040156869A1, “2-substituted quinazolin-4-ylamine analogues” (Neurogen Corporation, priority 2002, published 2004)

Target: human capsaicin receptor (VR1) (Homo sapiens, UniProt Q8NER1)
Experiment: Capsaicin receptor binding assay ([3H]RTX competition, VR1-transfected HEK293 membranes)

Chain of human capsaicin receptor (VR1) (Q8NER1 whole entry): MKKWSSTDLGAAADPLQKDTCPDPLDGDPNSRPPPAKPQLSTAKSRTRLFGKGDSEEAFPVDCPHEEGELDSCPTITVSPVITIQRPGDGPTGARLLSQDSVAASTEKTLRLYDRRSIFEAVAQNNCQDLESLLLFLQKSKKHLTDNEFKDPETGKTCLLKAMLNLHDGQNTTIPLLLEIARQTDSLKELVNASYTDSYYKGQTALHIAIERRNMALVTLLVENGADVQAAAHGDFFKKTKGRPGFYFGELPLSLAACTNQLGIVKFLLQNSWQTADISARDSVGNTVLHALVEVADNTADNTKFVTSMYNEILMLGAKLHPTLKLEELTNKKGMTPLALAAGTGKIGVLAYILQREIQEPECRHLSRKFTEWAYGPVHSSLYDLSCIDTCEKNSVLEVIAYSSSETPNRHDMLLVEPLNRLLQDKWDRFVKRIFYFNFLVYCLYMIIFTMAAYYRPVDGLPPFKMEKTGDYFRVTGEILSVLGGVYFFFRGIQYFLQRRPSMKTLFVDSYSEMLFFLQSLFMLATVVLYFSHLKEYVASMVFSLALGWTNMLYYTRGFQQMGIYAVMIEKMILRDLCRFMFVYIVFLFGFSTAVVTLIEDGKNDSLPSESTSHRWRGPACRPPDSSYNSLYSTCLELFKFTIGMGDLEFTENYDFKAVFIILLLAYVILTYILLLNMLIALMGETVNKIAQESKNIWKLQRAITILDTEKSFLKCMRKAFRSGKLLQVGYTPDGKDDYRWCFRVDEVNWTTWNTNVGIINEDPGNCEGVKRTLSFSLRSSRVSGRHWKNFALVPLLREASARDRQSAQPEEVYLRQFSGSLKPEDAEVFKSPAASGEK

Structure (SMILES)	Ki [µM]
CCOC(=O)c1nc(Nc2ccc(C(F)(F)F)cc2)c2ccc(-c3ncccc3C(F)(F)F)nc2n1 [Compound 173, 4-(4-Trifluoromethyl-phenylamino)-7-(3-trifluoromethyl-pyridin-2-yl)-pyrido[2,3-d]pyrimidine-2-carboxylic acid ethyl ester]	< 1
CCOCc1cc(Nc2ccc(C(F)(F)F)cc2)c2ccc(-c3ncccc3C(F)(F)F)nc2n1 [Compound 310, [2-Ethoxymethyl-7-(3-trifluoromethyl-pyridin-2-yl)-[1,8]naphthyridin-4-yl]-(4-trifluoromethyl-phenyl)-amine]	< 1
CCOCc1nc(Nc2ccc(C(F)(F)F)cc2)c2ccc(-c3ncccc3Cl)nc2n1 [Compound 134, [7-(3-Chloro-pyridin-2-yl)-2-ethoxymethyl-pyrido[2,3-d]pyrimidin-4-yl]-(4-trifluoromethyl-phenyl)-amine]	< 1
CCc1ccc(Nc2nc(CN3C[C@H](C)O[C@@H](C)C3)nc3cc(-c4ncccc4C(F)(F)F)ccc23)cc1 [Compound 641, (S,S)-[2-(2,6-Dimethyl-morpholin-4-ylmethyl)-7-(3-trifluoromethyl-pyridin-2-yl)-quinazolin-4-yl]-(4-ethyl-phenyl)-amine]	< 1
C[C@@H]1CN(Cc2nc(Nc3ccc(C(F)(F)F)cc3)c3ccc(-c4ncccc4Cl)cc3n2)C[C@@H](C)O1 [Compound 606, (R,R)-[7-(3-Chloro-pyridin-2-yl)-2-(2,6-dimethyl-morpholin-4-ylmethyl)-quinazolin-4-yl]-(4-trifluoromethyl-phenyl)-amine]	< 1
O=C(c1nc(Nc2ccc(C(F)(F)F)cc2)c2ccc(-c3ncccc3C(F)(F)F)nc2n1)N1CCCCC1 [Compound 460, Piperidin-1-yl-[4-(4-trifluoromethyl-phenylamino)-7-(3-trifluorornethyl-pyridin-2-yl)-pyrido[2,3-d]pyrimidin-2-yl]-methanone]	< 1
Cc1cc(Nc2nc(COCC(C)C)nc3nc(-c4ncccc4C(F)(F)F)ccc23)ccc1F [Compound 253, (4-Fluoro-3-methyl-phenyl)-[2-isobutoxymethyl-7-(3-trifluoromethyl-pyridin-2-yl)-pyrido[2,3-d]pyrimidin-4-yl]-amine]	< 1
COCc1nc(Nc2ccc(C(C)(C)C)nc2)c2ccc(-c3ncccc3Cl)cc2n1 [Compound 68, (6-tert-Butyl-pyridin-3-yl)-[7-(3-chloro-pyridin-2-yl)-2-methoxymethyl-quinazolin-4-yl]-amine]	< 1

Other lines, results leading:

Ki [µM]	Structure (SMILES)
< 1	FC(F)(F)c1ccc(Nc2nc(C3CCNCC3)nc3cc(-c4ncccc4C(F)(F)F)ccc23)cc1 [Compound 679, [2-Piperidin-4-yl-7-(3-trifluoromethyl-pyridin-2-yl)-quinazolin-4-yl]-(4-trifluoromethyl-phenyl)-amine]
< 1	OCCNCc1nc(Nc2ccc(C(F)(F)F)cc2)c2ccc(-c3ncccc3C(F)(F)F)cc2n1 [Compound 534, 2-{[4-(4-Trifluoromethyl-phenylamino)-7-(3-trifluoromethyl-pyridin-2-yl)-quinazolin-2-ylmethyl]-amino}-ethanol]
< 1	CCOCc1nc(Nc2ccc(C(F)(F)F)nc2)c2ccc(-c3ncccc3Cl)nc2n1 [Compound 146, [7-(3-Chloro-pyridin-2-yl)-2-ethoxymethyl-pyrido[2,3-d]pyrimidin-4-yl]-(6-trifluoromethyl-pyridin-3-yl)-amine]
< 1	FC(F)(F)c1ccc(Nc2nc(COCCN3CCCCC3)nc3cc(-c4ncccc4C(F)(F)F)ccc23)cn1 [Compound 30, [2-(2-Piperidin-1-yl-ethoxymethyl)-7-(3-trifluoromethyl-pyridin-2-yl)-quinazolin-4-yl]-(6-trifluoromethyl-pyridin-3-yl)-amine]
< 1	CC1(C)CN(Cc2nc(Nc3ccc(C(F)(F)F)cc3)c3ncc(-c4ncccc4C(F)(F)F)cc3n2)CCO1 [Compound 742, [2-(2,2-Dimethyl-morpholin-4-ylmethyl)-7-(3-trifluoromethyl-pyridin-2-yl)-pyrido[3,2-d]pyrimidin-4-yl]-(4-trifluoromethyl-phenyl)-amine]
